Reference: US8686147B2, “Compound with serotoninergic activity, process for preparing it and pharmaceutical composition comprising it” (Aziende Chimiche Riunite Angelini Francesco A.C.R.A.F. …, priority 2009, dated 2014)

Assays:
5-HT4 serotonin receptor = target: T1, 5-HT4 serotonin receptor (Cavia porcellus, UniProt O70528); experiment: Binding to the 5-HT4 serotonin receptor (radioligand binding, homogenate of guinea pig striatum); conditions: six concentrations, read-out: 5-HT4 (pKi) (converted)
T1 construct: The starting materials used were an homogenate of guinea pig striatum; from tissue; host or cells: guinea pig striatum homogenate
T1 sequence (O70528 whole entry): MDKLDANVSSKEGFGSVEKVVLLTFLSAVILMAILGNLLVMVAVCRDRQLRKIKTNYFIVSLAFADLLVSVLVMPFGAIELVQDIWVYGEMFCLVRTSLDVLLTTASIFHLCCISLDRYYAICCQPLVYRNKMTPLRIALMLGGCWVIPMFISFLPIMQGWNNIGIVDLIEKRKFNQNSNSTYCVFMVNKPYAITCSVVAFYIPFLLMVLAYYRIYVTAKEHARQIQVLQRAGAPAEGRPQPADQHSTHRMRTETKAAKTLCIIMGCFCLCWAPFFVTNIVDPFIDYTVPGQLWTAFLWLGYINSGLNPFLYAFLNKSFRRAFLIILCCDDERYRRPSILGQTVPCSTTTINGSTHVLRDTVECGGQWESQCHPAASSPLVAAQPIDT
Procedure: (§1) Confirmation of the binding to the serotoninergic receptors was performed by means of a biochemical test on purified membranes from recombinant human cells that stably express the specific receptors or from selected animal tissues as described in particular in Grossman C.
(§2) Confirmation of the binding to the serotoninergic receptors was made using purified membranes from selected animal tissues or from recombinant human cells that stably express the specific receptors.
Binding to the 5-HT4 serotonin receptor was performed using standard methods described in: Grossman C. […] The test compounds were tested at six concentrations to obtain the pKi values of the individual compounds.

[1] = target: T2, human 5-HT2A serotonin receptor (Homo sapiens, UniProt P28223); experiment: Binding to the human 5-HT2A serotonin receptor; conditions: human 5-HT2A receptor, six concentrations; for Ki: read-out: 5-HT2 (pKi) (converted)
T2 construct: expressed in transfected cells
T2 sequence (P28223 whole entry): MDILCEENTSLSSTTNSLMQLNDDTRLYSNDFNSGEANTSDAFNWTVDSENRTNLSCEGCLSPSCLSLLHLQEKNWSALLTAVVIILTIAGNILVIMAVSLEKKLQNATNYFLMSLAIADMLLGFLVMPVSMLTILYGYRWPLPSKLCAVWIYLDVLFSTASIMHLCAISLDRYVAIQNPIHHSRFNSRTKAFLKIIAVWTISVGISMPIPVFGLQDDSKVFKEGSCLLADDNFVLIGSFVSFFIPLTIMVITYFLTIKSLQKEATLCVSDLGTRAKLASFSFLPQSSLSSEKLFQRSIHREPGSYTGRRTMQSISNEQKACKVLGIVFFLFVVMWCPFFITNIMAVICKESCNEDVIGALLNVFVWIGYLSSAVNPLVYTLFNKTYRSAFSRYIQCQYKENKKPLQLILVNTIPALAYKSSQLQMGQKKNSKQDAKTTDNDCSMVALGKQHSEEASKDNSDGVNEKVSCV
Procedure: as §1, with “C. J. et al. (1993), Br. J. Pharmacol. 109: 618-624, Bonhaus D. W. et al. (1995), Br. J. Pharmacol. 115(4): 622-628; and Saucier C. et al. (1997), J. Neurochem. 68(5): 1998-2011.” for “C.”
as §2
Binding to the human 5-HT2A serotonin receptor was performed via the standard method described in Bonhaus, D. W., Bach C., De Souza A., Salazar F. H., Matsuoka B. D., Zuppan P., Chan H. W., Eglen R. M. (1995): “The pharmacology and distribution of human 5-hydroxytryptamine 2B (5-HT2B) receptor gene products: comparison with 5-HT2A and 5-HT2C receptors.” Br. J. Pharmacol. 115(4): 622-628; and Saucier C., Albert P. R. (1997): “Identification of an endogenous 5-hydroxytryptamine 2A receptor in NIH-3T3 cells: agonist-induced down-regulation involves decreases in receptor RNA and number.” J. Neurochem. 68(5): 1998-2011. The test compounds were tested at six concentrations to obtain the pKi values of the individual compounds.
The values of affinity for the 5-HT4 and 5-HT2A receptor of a number of compounds of formula (I) according to the present invention are given, respectively, in Tables 2 and 3, and expressed as pKi, the value of which is proportionately greater the greater the affinity of the compound for the receptor.

| Compound | melting point [°C] | Ki (5-HT4 serotonin receptor) [nM] | Ki [1] [nM] | 5-HT2 (pKi) [1] |
| --- | --- | --- | --- | --- |
| Cl.Cn1cc2c(OCC3CCN(CC(=O)Nc4ccccc4)CC3)nc3ccccc3c2c1 | 163 to 165 | – | – | – |
| CCCCN1CCC(COc2nc3ccccc3c3cn(C)cc23)CC1 [Compound 3, 4-[(1-Butylpiperid-4-yl)methyloxy]-2-methyl-2H-pyrrolo[3,4-c]quinoline] | – | 14.8 | > 1000 | – |
| Cn1cc2c(OCC3CCN(CCc4ccccc4)CC3)nc3ccccc3c2c1 [Compound 4, 4-{[1-(2-Phenyl)ethylpiperidine-4-yl]methoxy}-2-methyl-2H-pyrrolo[3,4-c]quinoline] | – | 1.86 | – | – |
| CC(C)n1cc2c(OCC3CCN(CCc4ccccc4)CC3)nc3ccccc3c2c1 [Compound 5, 4-{[1-(2-Phenyl)ethylpiperid-4-yl]methoxy}-2-isopropyl-2H-pyrrolo[3,4-c]quinoline] | – | 138 | – | – |
| Cn1cc2c(OCC3CCN(CC(=O)Nc4ccccc4)CC3)nc3ccccc3c2c1 [Compound 6, N-Phenyl-2-{4-[2-methyl-2H-pyrrolo[3,4-c]quinolin-4-yloxy-methyl]piperid-1-yl}acetamide] | – | 132 | – | – |
| Cl.Cn1cc2c(OCC3CCN(CCN4CCOCC4)CC3)nc3ccccc3c2c1 [Compound 9a, 4-{[1-(2-(4-Morpholinyl)ethyl)piperid-4-yl]methyloxy}-2-methyl-2H-pyrrolo[3,4-c]quinoline hydrochloride] | 190 to 192 | 2.29 | > 10000 | – |
| Cl.Cn1cc2c(OCC3CCN(CCc4ccc(N)cc4)CC3)nc3ccccc3c2c1 [Compound 11a, 4-[(1-(4-Aminophenylethyl)piperid-4-yl)methyloxy]-2-methyl-2H-pyrrolo[3,4-c]quinoline hydrochloride] | 165 to 167 | 4.57 | – | 6.6 |
| Cn1cc2c(OCC3CCN(CCc4ccc(C(=O)O)cc4)CC3)nc3ccccc3c2c1 [Compound 12a] | – | 2.24 | > 10000 | – |
| CC(=O)Nc1ccc(CCN2CCC(COc3nc4ccccc4c4cn(C)cc34)CC2)cc1 [Compound 13, 4-[(1-(4-Acetamidophenylethyl)piperid-4-yl)methyloxy]-2-methyl-2H-pyrrolo[3,4-c]quinoline] | – | 1.86 | > 1000 | – |
| COCc1ccc(CCN2CCC(COc3nc4ccccc4c4cn(C)cc34)CC2)cc1 [Compound 16, 4-[(1-(4-Methoxymethylphenylethyl)piperid-4-yl)methyloxy]-2-methyl-2H-pyrrolo[3,4-c]quinoline] | – | 19.1 | – | – |
